A short description of series [1]: Antagonism to the reserpine induced syndrome (ptosis, rectal temperature). It is filed as in vivo. Set-up: Ptosis: scale not given here.
The subject of series [2] is albino male mice. Briefly: Spontaneous behavior, motor coordination, muscular tension and nociceptive reflexes. Particulars: up to 200 mg/kg i.v., observation 5 hours. Format: in vivo. The source says: Among the compounds of the invention, 4H-1,3-benzoxazin-2-one-3-[N-(β-hydroxyethyl)-piperazino-methyl]-acetohydroxamic acid has been particularly studied and compared with 4H-1,3-benzoxazin-2-one-3-acetohydroxamic acid.

The nature of series [3]: Highest tolerated intraperitoneal dose. To be noted: in vivo, ip.
The subject of series [4] is reserpinized swimming rat. Kind of series: Antireserpine effect in a behavior test, swimming rat. Format: in vivo.
A short description of series [5]: Acute toxicity (LD50), single oral and intravenous administration. Format: in vivo, albino male mice. Particulars: mouse, in vivo, single administration, within 48 hours. On the procedure:
(§1) The acute toxicity (LD50), determined on albino male mice (weight 20-22 g) by a single oral and intravenous administration, is settled within 48 hours.

The test system of series [6] is albino male mice. The description is as above. To be noted: intravenous route. Format: in vivo. On the procedure: as §1
Where [7] appears, read: 25.0 mg/kg intraperitoneal, + R (reserpine).
Setting [8] is: 50.0 mg/kg intraperitoneal, + R (reserpine).
Setting [9] is: 100.0 mg/kg intraperitoneal, + R (reserpine).
Where [10] appears, read: 25 mg/kg intraperitoneal, + R (reserpine).
The mark [11] stands for this setting: 50 mg/kg intraperitoneal, + R (reserpine).
[12] abbreviates: Table 4, 50 mg/kg intraperitoneal, reserpine not stated.
[13] abbreviates: reserpine alone, 3.0 mg/kg intraperitoneal.

Like-named read-outs stand apart in the source and are kept apart here.

Turning to `O=C(CN1Cc2ccccc2OC1=O)N(O)CN1CCN(CCO)CC1` [4H-1,3-benzoxazin-2-one-3-[N-(β-hydroxyethyl)piperazinomethyl] -acetohydroxamic acid], in series [1] (setting [7]), the Ptosis stood at 24 and the Rectal temperature was determined as 33.1 °C. Besides, in series [1] (setting [8]), the Ptosis came out at 19 and the Rectal temperature came to 35.6 °C. For the same compound, in series [1] (setting [9]), the Ptosis is 2 and the Rectal temperature stood at 37.6 °C. In addition, in series [1] (in words, Table 1), the “antagonizing the hypothermia induced by reserpine” value is given as “most active” and the “antagonizing the ptosis induced by reserpine” value is reported as “most active”. In series [2], the motor apparatus coordination entry is “does not modify”, the muscular tension result was “does not modify”, the nociceptive reflexes result is given as “does not modify” and the spontaneous behavior result was “does not modify”. In series [3] (read-out: tolerated up to dose), the MTD was no less than 300 mg/kg. Further, in series [4] (setting [10]), the “Average time to get out of the basin” value turned out to be 28 s and the “Number of the animals which do not get out” value is 0/10. Besides, the “getting out of a basin full of water” value in series [4] (in words, pretreated plus reserpine, versus control animals) is “manage to get out of the basin within a period of time slightly longer than that of the control animals”. Further, the 50% lethal dose (LD50) at 48 h in series [5] (po, per os) is greater than 3000 mg/kg. This compound showed an LD50 at 48 h in series [5] (intravenous) of 576 mg/kg. Besides, the “times less toxic than Imipramine” value in series [6] is given as “about 20 times”. For the same compound, in series [6] (in words), the “less toxic than 4H-1,3-benzoxazin-2-one-3-acetohydroxamic acid” value was “about half again less toxic”.

Regarding `O=C(CN1Cc2ccccc2OC1=O)NO` [4H-1,3-benzoxazin-2-one-3-acetohydroxamic acid], in series [1] (setting [8]), the Ptosis is listed as 29 and the Rectal temperature is 36.0 °C. In series [1] (setting [9]), the Ptosis was found to be 5 and the Rectal temperature is 38.1 °C. For the same compound, in series [4] (setting [11]), the “Average time to get out of the basin” value came out at 25 s and the “Number of the animals which do not get out” value is on record as 0/10. In addition, the LD50 at 48 h in series [5] (po, per os) was roughly 2000 mg/kg. In series [5] (intravenous), this compound gave an LD50 at 48 h of 350 mg/kg.

Regarding `CCN(CC)CCN(CC)CN(O)C(=O)CN1Cc2ccccc2OC1=O` [Example 2, 4H-1,3-benzoxazin-2-one-3-[(N,N,N'triethyl)-ethylenediaminomethyl]-acetohydroxamic acid], in series [4] (setting [12]), the “Average time to get out of the basin” value amounted to 10 s and the “Number of the animals which do not get out” value is on record as 1/10. In series [4] (in words), the test results is “good test results”. In addition, the LD50 at 48 h in series [5] (po, per os) came to 2550 mg/kg. This compound also showed an LD50 at 48 h in series [5] (intravenous) of 328 mg/kg.

`CN(C)CCCN1c2ccccc2CCc2ccccc21` [Imipramine, reference compound]: in series [1] (setting [8]), the Ptosis came to 29 and the Rectal temperature stood at 36.0 °C. Further, the MTD in series [3] (read-out: highest tolerated dose) came out at 50 mg/kg. For the same compound, in series [4] (setting [10]), the “Average time to get out of the basin” value came out at 40 s and the “Number of the animals which do not get out” value was 7/10.

Consider `COC(=O)[C@H]1[C@H]2C[C@@H]3c4[nH]c5cc(OC)ccc5c4CCN3C[C@H]2C[C@@H](OC(=O)c2cc(OC)c(OC)c(OC)c2)[C@@H]1OC` [Reserpine, reference compound], for which, in series [1] (setting [13]), the Ptosis turned out to be 40 and the Rectal temperature is 32.1 °C. Further, the “getting out of a basin full of water” value in series [4] (in words, reserpinized animals) is listed as “can no longer get out of a basin full of water”. Further, the “Number of the animals which do not get out” value in series [4] (reserpine alone, 5 mg/kg intraperitoneal) is reported as 10/10.

The values above are taken from US3948890A, “4H-1,3-benzoxazin-2-one-3-acetohydroxamic acid derivatives” (Farmitalia Societa Farmaceutica Italia, priority 1971, dated 1976).
